Reference: PubChem BioAssay (NCI)
Where “and” joins values, the source holds several entries; their conditions need not be identical. Equal values may be shown once.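 Five compound concentrations were applied to cells in 96-well plates for 48 hours; endpoints were derived by simple linear interpolation of the resulting dose-response curve. GI50 marks 50% less growth. Definition used: TGI = concentration required for complete inhibition of growth.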 Where a SMILES comes first, the peptide text is derived from it. [ ]: non-standard residue; d: D form. The star is where a group is joined. ξ: configuration not given here. NMeF = CN[C@@H](Cc1ccccc1)C(=O)O; NMeN = CN[C@@H](CC(N)=O)C(=O)O; NMeV = CN[C@H](C(=O)O)C(C)C; ξNMeV = CNC(C(=O)O)C(C)C; Boc = CC(C)(C)OC(=O)*; ξNMeA = CNC(C)C(=O)O; ξV = CC(C)C(N)C(=O)O

Legend:
Experiment in all cases: NCI tumour cell line growth inhibition, 48 h
[1] = test system: SF-295 CNS
[2] = test system: SF-268 CNS
[3] = test system: DMS 273 small cell lung
[4] = test system: DLD-1 colon
[5] = test system: MOLT-4 leukemia
[6] = test system: NCI-H460 lung
[7] = test system: CAKI-1 renal
[8] = test system: MCF7 breast
[9] = test system: HOP-62 NSCLC
[10] = test system: OVCAR-5 ovarian
[11] = test system: PC-3 prostate
[12] = test system: SNB-19 CNS
[13] = test system: TK-10 renal
[14] = test system: HS 578T breast
[15] = test system: HT29 colon
[16] = test system: UACC-62 melanoma
[17] = test system: DU-145 prostate
[18] = test system: HCC-2998 colon
[19] = test system: NCI-H226 lung
[20] = test system: EKVX NSCLC
[21] = test system: RXF 393 renal
[22] = test system: HCT-15 colon
[23] = test system: KM12 colon
[24] = test system: CCRF-CEM leukemia
[25] = test system: U251 CNS
[26] = test system: OVCAR-3 ovarian
[27] = test system: A498 renal
[28] = test system: MALME-3M melanoma
[29] = test system: MDA-MB-435
[30] = test system: HCT-116 colon
[31] = test system: MDA-MB-231 breast
[32] = test system: NCI/ADR-RES ovarian
[33] = test system: HOP-92 NSCLC

SMILES: COC(=O)C(C)N(C)C(=O)[C@H](CC(N)=O)N(C)C(=O)[C@@H]1CCCN1C(=O)[C@H](C(C)C)N(C)C(=O)C(C(C)C)N(C)C(=O)[C@H](Cc1ccccc1)N(C)C(=O)C(NC(=O)OC(C)(C)C)C(C)C (stereo partly drawn) (Boc-[ξV][NMeF][ξNMeV][NMeV]P[NMeN][ξNMeA]-OMe)
- TGI [1]: 26.3 µM and > 100 µM
- GI50 [2]: 15.6 µM
- TGI [2]: 50 µM and 29 µM
- TGI [3]: 28.9 µM
- TGI [4]: 31.8 µM
- GI50 [5]: 11.1 µM
- TGI [5]: 21.5 µM and 33.6 µM
- GI50 [6]: 17.4 µM
- TGI [6]: 50 µM and 39 µM
- GI50 [7]: 26.9 µM
- TGI [7]: > 50 µM and 55.3 µM
- TGI [8]: 50 µM
- GI50 [9]: 19.1 µM
- TGI [9]: 31.5 µM and 38.8 µM
- GI50 [10]: 97.2 µM
- TGI [10]: > 100 µM
- TGI [11]: 50 µM
- GI50 [12]: 16.9 µM
- TGI [12]: 50 µM and 30.8 µM
- GI50 [13]: 18.4 µM
- TGI [13]: 50 µM and 51.8 µM
- TGI [14]: 23.6 µM
- GI50 [15]: 23.4 µM
- TGI [15]: 50 µM and 57.7 µM
- GI50 [16]: 17.5 µM
- TGI [16]: 20.3 µM and 36.8 µM
- TGI [17]: 50 µM
- GI50 [18]: 16.7 µM
- TGI [18]: 50 µM and 31.1 µM
- GI50 [19]: 20.8 µM
- TGI [19]: 40.2 µM and 36.6 µM
- GI50 [20]: 23.7 µM
- TGI [20]: > 50 µM and 61.5 µM
- TGI [21]: 29.8 µM
- GI50 [22]: 29.8 µM
- TGI [22]: 50 µM and > 100 µM
- GI50 [23]: 18.8 µM
- TGI [23]: 22.8 µM and 37.3 µM
- GI50 [24]: 10.8 µM
- TGI [24]: 50 µM and 33.1 µM
- GI50 [25]: 16.9 µM
- TGI [25]: 23 µM and 30.5 µM
- GI50 [26]: 17.1 µM
- TGI [26]: 50 µM and 31.2 µM
- GI50 [27]: 21.9 µM
- TGI [27]: 50 µM and 67 µM
- TGI [28]: 32.5 µM
- TGI [29]: 50 µM
- TGI [30]: 50 µM and 31.1 µM
- TGI [31]: 50 µM
- TGI [32]: > 50 µM
- GI50 [33]: 14.6 µM
- TGI [33]: 50 µM and 27.8 µM
